Data published in patent US11633392B2 (priority 2016, dated 2023).
Structures can show the parent of a compound that is named as a salt. Where two headings read alike, the source gives them in different places. Marks after values point to notes of the source that are not given here.

How the values were obtained:
[1] = tested on: olfactory bulbectomized (OBX) rat; experiment: Hyperemotional reaction inhibition test using olfactory bulbectomized (OBX) rat; format: in vivo; conditions: 10 mg/kg s.c. once a day, on the day 14 of the administration period
Text: Hyperemotional Reaction Inhibition Test Using Olfactory Bulbectomized (OBX) Rat
According to the method of Saitoh et al. (Saitoh A, Yamada M, Yamada M, Takahashi K, Yamaguchi K, Murasawa H, Nakatani A, Tatsumi Y, Hirose N, and Kamei J: Antidepressant-like effects of the delta-opioid receptor agonist SNC80 ((+)-4-[(alphaR)-alpha-[(2S,5R)-2,5-dimethyl-4-(2-propenyl)-1-piperazinyl]-(3-methoxyphenyl)methyl]-N,N-diethylbenzamide) in an olfactory bulbectomized rat model, Brain Res., 2008, 1208:160-169), OBX rats were prepared by extracting the rat olfactory bulbs, and then breeding the rats in an isolated circumstance. Hyperemotional reaction was evaluated on the day 14 after the surgical operation and before the division into groups, and 2 hours after the administration on the days 1, 4, 7, 10, and 14 of the administration period according to the hyperemotional reaction evaluation criteria prepared by Gomita et al. (Gomita et al., Behavioral pharmacological and electroencephalographical studies of 7-chloro-1-methyl-5-phenyl-1H-1,5-benzodiazepine-2,4-(3H,5H:)-dione (Clobazam), Folia Pharmacologica Japonica, 82, 267 (1983)). The drug was subcutaneously administered once a day continuously over 14 days. As a positive control drug, fluoxetine, which is a selective serotonin reuptake inhibitor (SSRI), was used. As the solvent, a 1% cyclodextrin (CD) was used.

[2] = molecular target: T1, human opioid δ receptor (Homo sapiens, UniProt P41143); experiment: Opioid receptor function test (Lance Ultra cAMP Kit), δ receptor; format: cell-based; conditions: for δ receptor Emax / Emax: ratio to maximum reaction of control drug SNC80 taken as 100%; for EC50: CHO cells expressing human δ receptor, cAMP, in the presence of forskolin
T1 construct: host or cells: CHO cells
T1 sequence (P41143 whole entry): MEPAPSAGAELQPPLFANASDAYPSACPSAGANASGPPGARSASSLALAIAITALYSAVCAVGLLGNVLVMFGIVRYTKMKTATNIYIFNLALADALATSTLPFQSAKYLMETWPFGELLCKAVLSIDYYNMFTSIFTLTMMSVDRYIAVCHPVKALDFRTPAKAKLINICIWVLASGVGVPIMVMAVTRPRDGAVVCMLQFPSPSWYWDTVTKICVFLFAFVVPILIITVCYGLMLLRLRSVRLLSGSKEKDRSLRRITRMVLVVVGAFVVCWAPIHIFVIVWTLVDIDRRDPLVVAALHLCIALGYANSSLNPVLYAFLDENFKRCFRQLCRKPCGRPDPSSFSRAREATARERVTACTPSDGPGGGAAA
Protocol: (§1) Opioid Receptor Function Test
(§2) The functional activities of the compounds provided by the present invention on the μ, δ, and κ opioid receptors were investigated.
(§3) The test was performed by using Lance Ultra cAMP Kit (PerkinElmer) according to a method predetermined for the kit. In the evaluation of the agonistic activity, CHO cells expressing each of the human opioid receptors (δ, μ, and κ, accession numbers and catalog numbers are mentioned below) and 10 μM of each test compound were reacted for 30 minutes in an assay buffer (1× HBSS, […], pH 7.4, […] (isobutylmethylxanthine), 7.5% BSA) in the presence of forskolin. Subsequently, the cAMP detection reagent included in the kit was added, and 1 hour afterward, time-resolved fluorescence measurement was performed by using the EnVision plate reader (PerkinElmer). The test compounds and the control drugs (δ: SNC80, μ: DAMGO, κ: U-69593) were evaluated in a concentration range of 10^−12 to 10^−5 M, a dose-response curve of each test compound was obtained from the fluorescence values at 665 nm, and EC50 value and the Emax value were calculated. The Emax value was calculated as a ratio of the maximum reaction of the test compound to the maximum reaction of each control drug, which is taken as 100%.
(§4) • δ: Catalog No. CT4607, Accession No. NM_000911.2 • μ: Catalog No. CT4605, Accession No. NM_000914 • κ: Catalog No. CT4606, Accession No. NM_000912 (ChanTest Corporation)

[3] = molecular target: T2, human opioid κ receptor (Homo sapiens, UniProt P41145); experiment: Opioid receptor function test (Lance Ultra cAMP Kit), κ receptor; format: cell-based; conditions: for EC50: CHO cells expressing human κ receptor, cAMP, in the presence of forskolin; for κ receptor reaction rate at the maximum concentration (reference value, marked *): maximum reaction not reached, maximum concentration 10 μM, U-69593 = 100%
T2 construct: host or cells: CHO cells
T2 sequence (P41145 whole entry): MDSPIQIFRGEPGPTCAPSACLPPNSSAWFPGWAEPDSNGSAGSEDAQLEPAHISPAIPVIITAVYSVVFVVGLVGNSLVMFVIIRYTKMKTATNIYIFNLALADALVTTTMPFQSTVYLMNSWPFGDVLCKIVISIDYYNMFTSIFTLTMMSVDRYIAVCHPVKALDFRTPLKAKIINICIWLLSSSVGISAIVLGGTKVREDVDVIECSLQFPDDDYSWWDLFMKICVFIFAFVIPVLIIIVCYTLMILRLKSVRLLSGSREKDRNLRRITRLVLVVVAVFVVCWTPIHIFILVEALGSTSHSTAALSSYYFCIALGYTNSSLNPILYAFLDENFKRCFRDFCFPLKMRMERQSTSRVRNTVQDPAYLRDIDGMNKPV
Protocol: as §1, §2, §3, §4

[4] = molecular target: T3, human opioid μ receptor (Homo sapiens, UniProt P35372); experiment: Opioid receptor function test (Lance Ultra cAMP Kit), μ receptor; format: cell-based; conditions: for EC50: read-out: μ receptor EC50 value
T3 construct: host or cells: CHO cells
T3 sequence (P35372 whole entry): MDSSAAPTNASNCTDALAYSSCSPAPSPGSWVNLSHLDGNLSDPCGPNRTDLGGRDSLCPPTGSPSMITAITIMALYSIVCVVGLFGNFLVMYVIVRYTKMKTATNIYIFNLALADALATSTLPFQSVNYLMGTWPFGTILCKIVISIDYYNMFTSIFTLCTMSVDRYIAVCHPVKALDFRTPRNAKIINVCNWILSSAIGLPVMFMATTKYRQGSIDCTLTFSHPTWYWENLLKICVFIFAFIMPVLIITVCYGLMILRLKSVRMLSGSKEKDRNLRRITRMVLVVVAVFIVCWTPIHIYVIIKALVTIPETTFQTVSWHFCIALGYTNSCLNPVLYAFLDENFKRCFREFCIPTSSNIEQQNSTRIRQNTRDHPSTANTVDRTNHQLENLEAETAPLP
Protocol: as §1, §2, §3, §4

[5] = ratio to maximum reaction of control drug U-69593 taken as 100%
[6] = ratio to maximum reaction of control drug DAMGO taken as 100%
[7] = CHO cells expressing human μ receptor, cAMP, in the presence of forskolin

With CNCCC(Oc1ccc(C(F)(F)F)cc1)c1ccccc1 (centres unmarked) [fluoxetine, reference compound] the “hyperemotional reactions of the OBX rats compared with the solvent administration group” value [1] was “significantly reduced”.
With Cc1ccc(C(=O)N2C[C@H]3C[C@@]45CC[C@@H]2[C@@H]3[C@@]42CCN(CC3CC3)[C@@H]5Cc3ccc(O)cc32)c(=O)[nH]1 [Example 32, 3-((1S,3aR,5aS,6R,11bR,11cS)-14-(cyclopropylmethyl)-10-hydroxy-2,3,3a,4,5,6,7,11c-octahydro-1H-6,11b-(epiminoethano)-1,5a-methanonaphtho[1,2-e]indole-3-carbonyl)-6-methylpyridin-2(1H)-one hydrochloride] the “δ receptor Emax” value [2] was 70%, the “κ receptor Emax” value [3, 5] was 21% and the “μ receptor Emax” value [4, 6] was 8.6%.
With Cn1cccc(C(=O)N2C[C@H]3C[C@@]45CC[C@@H]2[C@@H]3[C@@]42CCN(CC3CC3)[C@@H]5Cc3ccc(O)cc32)c1=O [Example 31, 3-((1S,3aR,5aS,6R,11bR,11cS)-14-(cyclopropylmethyl)-10-hydroxy-2,3,3a,4,5,6,7,11c-octahydro-1H-6,11b-(epiminoethano)-1,5a-methanonaphtho[1,2-e]indole-3-carbonyl)-1-methylpyridin-2(1H)-one hydrochloride] the “δ receptor Emax” value [2] was 97%, the “μ receptor Emax” value [4] was 7.7% and the EC50 [4] was greater than 10 nM.
For CCn1cc(C(=O)N2C[C@H]3C[C@@]45CC[C@@H]2[C@@H]3[C@@]42CCN(CC3CC3)[C@@H]5Cc3ccc(O)cc32)ccc1=O [Example 28, 5-((1S,3aR,5aS,6R,11bR,11cS)-14-(cyclopropylmethyl)-10-hydroxy-2,3,3a,4,5,6,7,11c-octahydro-1H-6,11b-(epiminoethano)-1,5a-methanonaphtho[1,2-e]indole-3-carbonyl)-1-ethylpyridin-2(1H)-one], the EC50 [2] was less than 3 nM, the Emax [2] was 92% and the EC50 [3] was less than 1 nM. The Emax [3, 5] was 18%, the EC50 [4, 7] was greater than 1 nM and the Emax [4, 6] was 16%.
Cc1ccc(C(=O)N2C[C@H]3C[C@@]45CC[C@@H]2[C@@H]3[C@@]42CCN(CC3CC3)[C@@H]5Cc3ccc(O)cc32)c(=O)[nH]1 [Example 8, 3-((1S,3aR,5aS,6R,11bR,11cS)-14-(cyclopropylmethyl)-10-hydroxy-2,3,3a,4,5,6,7,11c-octahydro-1H-6,11b-(epiminoethano)-1,5a-methanonaphtho[1,2-e]indole-3-carbonyl)-6-methylpyridin-2(1H)-one] showed an EC50 [2] of less than 3 nM, an Emax [2] of 70% and an EC50 [3] of less than 1 nM. It also gave an Emax [3, 5] of 21%, an EC50 [4, 7] greater than 1 nM and an Emax [4, 6] of 8.6%.
O=C(c1cc[nH]c(=O)c1)N1C[C@H]2C[C@@]34CC[C@@H]1[C@@H]2[C@@]31CCN(CC2CC2)[C@@H]4Cc2ccc(O)cc21 [Example 11, 4-((1S,3aR,5aS,6R,11bR,11cS)-14-(cyclopropylmethyl)-10-hydroxy-2,3,3a,4,5,6,7,11c-octahydro-1H-6,11b-(epiminoethano)-1,5a-methanonaphtho[1,2-e]indole-3-carbonyl)pyridin-2(1H)-one] was tested, and the EC50 [2] was less than 3 nM, the Emax [2] was 76% and the “κ receptor reaction rate at the maximum concentration (reference value, marked *)” value (“κ receptor reaction rate” for short) [3] was −2.5* %. For the same compound, the EC50 [4, 7] was greater than 1 nM and the Emax [4, 6] was 11%.
In the case of O=C(c1cc(=O)cco1)N1C[C@H]2C[C@@]34CC[C@@H]1[C@@H]2[C@@]31CCN(CC2CC2)[C@@H]4Cc2ccc(O)cc21 [Example 19, 2-((1S,3aR,5aS,6R,11bR,11cS)-14-(cyclopropylmethyl)-10-hydroxy-2,3,3a,4,5,6,7,11c-octahydro-1H-6,11b-(epiminoethano)-1,5a-methanonaphtho[1,2-e]indole-3-carbonyl)-4H-pyran-4-one], the EC50 [2] is reported as less than 3 nM, the Emax [2] is reported as 91% and the “κ receptor reaction rate” value [3] is reported as 0.6* %. For the same compound, the EC50 [4, 7] was greater than 1 nM and the Emax [4, 6] was 19%.
O=C(c1cc(=O)cc[nH]1)N1C[C@H]2C[C@@]34CC[C@@H]1[C@@H]2[C@@]31CCN(CC2CC2)[C@@H]4Cc2ccc(O)cc21 [Example 14, 2-((1S,3aR,5aS,6R,11bR,11cS)-14-(cyclopropylmethyl)-10-hydroxy-2,3,3a,4,5,6,7,11c-octahydro-1H-6,11b-(epiminoethano)-1,5a-methanonaphtho[1,2-e]indole-3-carbonyl)pyridin-4(1H)-one] was tested, and the EC50 [2] was less than 3 nM, the Emax [2] was 95% and the “κ receptor reaction rate” value [3] was −6.7* %. For the same compound, the EC50 [4, 7] was greater than 1 nM and the Emax [4, 6] was 8.1%.
For O=C(c1ccc[n+]([O-])c1)N1C[C@H]2C[C@@]34CC[C@@H]1[C@@H]2[C@@]31CCN(CC2CC2)[C@@H]4Cc2ccc(O)cc21 [Example 4, 3-((1S,3aR,5aS,6R,11bR,11cS)-14-(cyclopropylmethyl)-10-hydroxy-2,3,3a,4,5,6,7,11c-octahydro-1H-6,11b-(epiminoethano)-1,5a-methanonaphtho[1,2-e]indole-3-carbonyl)pyridine 1-oxide], the EC50 [2] was less than 3 nM, the Emax [2] was 86% and the EC50 [3] was greater than 10 nM. The Emax [3, 5] was 27% and the “μ receptor reaction rate at the maximum concentration (reference value, marked *)” value ([4]; maximum reaction not reached, maximum concentration 10 μM, DAMGO = 100%) was 5.5* %.
In the case of O=C(c1ccc(=O)[nH]c1)N1C[C@H]2C[C@@]34CC[C@@H]1[C@@H]2[C@@]31CCN(CC2CC2)[C@@H]4Cc2ccc(O)cc21 [Example 5, 5-((1S,3aR,5aS,6R,11bR,11cS)-14-(cyclopropylmethyl)-10-hydroxy-2,3,3a,4,5,6,7,11c-octahydro-1H-6,11b-(epiminoethano)-1,5a-methanonaphtho[1,2-e]indole-3-carbonyl)pyridin-2(1H)-one], the EC50 [2] is reported as less than 3 nM, the Emax [2] is reported as 81% and the EC50 [3] is reported as less than 1 nM. The Emax [3, 5] was 20%, the EC50 [4, 7] was greater than 1 nM and the Emax [4, 6] was 9.7%.
Cn1cccc(C(=O)N2C[C@H]3C[C@@]45CC[C@@H]2[C@@H]3[C@@]42CCN(CC3CC3)[C@@H]5Cc3ccc(O)cc32)c1=O [Example 6, 3-((1S,3aR,5aS,6R,11bR,11cS)-14-(cyclopropylmethyl)-10-hydroxy-2,3,3a,4,5,6,7,11c-octahydro-1H-6,11b-(epiminoethano)-1,5a-methanonaphtho[1,2-e]indole-3-carbonyl)-1-methylpyridin-2(1H)-one] was tested, and the EC50 [2] was less than 3 nM, the Emax [2] was 97% and the “κ receptor reaction rate” value [3] was 3.2* %. For the same compound, the EC50 [4, 7] was greater than 10 nM and the Emax [4, 6] was 7.7%.
